Columns and labels:
Assay type in all cases: cell-based
caspase 3/7 = assay: Caspase 3/7-Glow assay in BL cell lines; conditions: 24 hours, A825 0.1 μM, JQ1 1.0 μM, OTX015 1.0 μM
SLC19A1 = assay: RT-QPCR of SLC19A1 gene expression in NAMALWA cells; conditions: A825 0.1 μM 24 h, washout, 24 hours post-treatment
Description: RNA extraction was performed with Aurum™ Total RNA Mini Kit (#732-6820) from Bio-Rad. First-strand cDNA from total RNA was synthesized with High-Capacity cDNA Reverse Transcription Kit (#4368813) from Life Technologies according to manufacturer's instruction. Quantitative PCR was performed using Bio-rad SsoAdvanced™ Universal SYBR® Green Supermix (#172-5271). The following primers were used: […]
Cells were re-seeded in fresh medium and incubated without any inhibitor for 0 hr, 6.0 hr, and 24.0 hr. In a parallel control experiment, cells were treated in the same manner, except DMSO was used in place of inhibitor. At each time point, RNA was extracted from the lysates, reverse-transcribed into cDNA, and quantified by QPCR with SLC19A1 specific primers. GAPDH was also quantified by QPCR as an internal control.

c-Myc = assay: Western blot analysis of c-Myc in BL cell lines
Description: (§1) Cultured cells were collected in lysis buffer containing 40 mM HEPES (pH 7.4), 140 mM NaCl, 2.5 mM EDTA, 1% NP-40, 0.1% SDS and protease inhibitor cocktail. After 10 minutes of centrifugation (14000 rpm), supernatant was collected for protein concentration determination by BCA method and subjected for immunoblotting by standard protocol. Western blot results were visualized using Bio-Rad Clarity ECL Western Blotting Substrate on Bio-Rad ChemiDoc™ MP imaging system.
A separate set of cells were treated in the same manner, except that DMSO was used in place of the inhibitor. Following treatment, cell lysates were collected and analyzed by immunoblot for c-Myc and Actin.
Cells were re-seeded and incubated without inhibitor for 0 hr, 0.5 hr, 1.0 hr, 2.0 hr, 3.0 hr, 4.0 hr, and 6.0 hr. Cell lysates were then collected at the various time points and analyzed by immunoblot for c-Myc and Actin. In a parallel control experiment, NAMALWA cells were treated in the same manner, except DMSO was used in place of JQ1.
After treatment, the cells were either lysed (to evaluate the suppression of c-Myc by the inhibitors) or washed to remove the inhibitor, re-seeded, and incubated without inhibitor for 4.0 hours (to evaluate the reversibility of c-Myc suppression). Cell lysates were collected and analyzed by immunoblot for c-Myc and Actin.
Following treatment, cell lysates were collected and analyzed by immunoblot for BRD4, c-Myc and Actin.
Cells were re-seeded in fresh medium and incubated without any compound for 0 hr, 2.0 hr, 4.0 hr, 6.0 hr, and 24.0 hr. In a parallel control experiment, cells were treated in the same manner, except DMSO was used in place of inhibitor. Lysates were collected and analyzed by immunoblot for BRD4, c-Myc, and Actin.

PARP = PARP cleavage immunoblot in BL cells; conditions: 48 hours; A825 0.1 uM, JQ1 and OTX15 up to 10.0 μM; Ramos cells
Description: as §1
Lysates were collected and analyzed by immunoblot for PARP cleavage with actin as loading control.

[1] = system: BL cell lines (NAMALWA, Ramos, CA-46, Daudi); assay: Proliferation assay (CellTiter-Glo) in BL cell lines
Description: To assess the effect of the inhibitors on proliferation, cells (50,000/100 μl) were seeded in 96-well tissue culture plates followed by addition of compound at the indicated concentration. After 72 hours, 100 μL per well of reconstituted CellTiter-Glo (CTG) reagent (#G7572 from Promega) was added and read on Cytation 3 imaging reader from BioTek. Relative cell growth was determined by comparing assay readings of treated cells with control DMSO treated cells.
Specifically, NAMALWA, Ramos, CA-46, and Daudi cell lines were seeded at 50,000 cells/100 μl in 96-well plates. […] Following treatment, the relative proliferation of the samples was determined by CTG assay 72 hours following treatment.
Cells were re-seeded in fresh medium and incubated without any compound for 0 hr, 24.0 hr, and 48.0 hr. In a parallel control experiment, cells were treated in the same manner, except DMSO was used in place of inhibitor. Following treatment, the relative proliferation of the samples was determined by CTG assay.
In a parallel control experiment, cells were treated in the same manner, except DMSO was used in place of inhibitor. Following treatment, the relative proliferation of the samples was determined by CTG assay.
In a parallel experiment, cells were treated in the same manner, except DMSO was used in place of pomalidomide.

Cc1sc2c(c1C)C(c1ccc(Cl)cc1)=N[C@@H](CC(=O)Nc1ccc(OCCOCCOCCOCCNc3cccc4c3C(=O)N(C3CCC(=O)NC3=O)C4=O)cc1)c1nnc(C)n1-2 (some centres unmarked) [Compound A825]
caspase 3/7 activity (caspase 3/7): statistically significant increase in caspase activity
SLC19A1 gene expression after compound removal (SLC19A1): greatly reduced compared to the control sample
c-Myc protein level after compound removal (c-Myc; A825 0.1 μM 24 h, washout, 24 hours post-treatment, NAMALWA cells): well below the control sample
c-Myc downregulation (immunoblot) (c-Myc; A825 100-1000 nM overnight, NAMALWA and Ramos cells): much more pronounced downregulation of c-Myc compared to JQ1 and OTX-15
apoptosis by PARP cleavage (PARP): prominent PARP cleavage
suppression of proliferation ([1]; 72 hours, all BL cell lines tested): more pronounced suppression of proliferation compared to JQ1 or OTX15
anti-proliferation effect ([1]; A825 10 nM with 10.0 μM pomalidomide, 72 hours, all cell lines tested): prevented the anti-proliferation effect
duration of proliferation suppression post-treatment ([1]; A825 0.1 μM 24 h, washout, NAMALWA cells): more than 48 hours
